Literature values in patent US20090291465A1, “Screening Method for Identifying New Drugs” (FUNDACIÓ PRIVADA PARC CIENTÍFIC DE BARCELONA, priority 2006, published 2009).

Experiments:
[1] = limits its use to topical applications
[2] = system: isoleucyl-tRNA synthetases (IIeRS)

C/C(=C\C(=O)OCCCCCCCCC(=O)O)C[C@@H]1OC[C@H](C[C@@H]2O[C@H]2[C@@H](C)[C@H](C)O)[C@@H](O)[C@H]1O [Pseudomonic acid]
systemic bioavailability [1]: lack of systemic bioavailability
selectivity for pathogen vs. mammalian IIeRS [2]: ~8000 fold
